Laboratory results reported in ChEMBL document CHEMBL1129102, “Design, synthesis, and evaluation of fibrinogen inhibitors, -(p-amidinophenoxy) alkanoylaspartic acid derivatives” (Bioorg Med Chem Lett, 1996).

Molecular target: Integrin alpha-IIb/beta-3 (Homo sapiens, UniProt P05106+P08514)
Assay: Inhibition of human platelet adhesion to fibrinogen

Integrin alpha-IIb/beta-3, sequence (P05106 27-788 limits assumed): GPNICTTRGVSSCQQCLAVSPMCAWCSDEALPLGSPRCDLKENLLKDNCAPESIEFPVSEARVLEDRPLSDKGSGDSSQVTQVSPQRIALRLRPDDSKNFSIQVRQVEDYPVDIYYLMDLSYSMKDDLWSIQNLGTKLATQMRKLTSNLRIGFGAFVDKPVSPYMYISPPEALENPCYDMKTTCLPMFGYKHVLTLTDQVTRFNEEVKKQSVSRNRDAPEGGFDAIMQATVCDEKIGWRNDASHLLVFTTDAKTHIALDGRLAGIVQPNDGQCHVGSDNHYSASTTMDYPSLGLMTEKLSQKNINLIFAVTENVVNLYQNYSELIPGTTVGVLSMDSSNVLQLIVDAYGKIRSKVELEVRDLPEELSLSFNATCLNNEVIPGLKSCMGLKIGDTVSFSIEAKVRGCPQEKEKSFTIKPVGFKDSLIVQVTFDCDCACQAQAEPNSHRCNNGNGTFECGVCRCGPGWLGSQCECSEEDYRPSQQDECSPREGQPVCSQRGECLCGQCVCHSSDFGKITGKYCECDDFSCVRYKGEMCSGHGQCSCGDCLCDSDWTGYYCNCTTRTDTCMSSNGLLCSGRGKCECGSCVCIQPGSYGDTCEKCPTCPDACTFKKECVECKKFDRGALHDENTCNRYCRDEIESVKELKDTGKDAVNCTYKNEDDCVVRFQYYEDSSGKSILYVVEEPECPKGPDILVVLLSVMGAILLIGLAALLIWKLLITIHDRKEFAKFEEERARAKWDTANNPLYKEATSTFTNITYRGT
Integrin alpha-IIb/beta-3, sequence (P08514 32-887 limits assumed): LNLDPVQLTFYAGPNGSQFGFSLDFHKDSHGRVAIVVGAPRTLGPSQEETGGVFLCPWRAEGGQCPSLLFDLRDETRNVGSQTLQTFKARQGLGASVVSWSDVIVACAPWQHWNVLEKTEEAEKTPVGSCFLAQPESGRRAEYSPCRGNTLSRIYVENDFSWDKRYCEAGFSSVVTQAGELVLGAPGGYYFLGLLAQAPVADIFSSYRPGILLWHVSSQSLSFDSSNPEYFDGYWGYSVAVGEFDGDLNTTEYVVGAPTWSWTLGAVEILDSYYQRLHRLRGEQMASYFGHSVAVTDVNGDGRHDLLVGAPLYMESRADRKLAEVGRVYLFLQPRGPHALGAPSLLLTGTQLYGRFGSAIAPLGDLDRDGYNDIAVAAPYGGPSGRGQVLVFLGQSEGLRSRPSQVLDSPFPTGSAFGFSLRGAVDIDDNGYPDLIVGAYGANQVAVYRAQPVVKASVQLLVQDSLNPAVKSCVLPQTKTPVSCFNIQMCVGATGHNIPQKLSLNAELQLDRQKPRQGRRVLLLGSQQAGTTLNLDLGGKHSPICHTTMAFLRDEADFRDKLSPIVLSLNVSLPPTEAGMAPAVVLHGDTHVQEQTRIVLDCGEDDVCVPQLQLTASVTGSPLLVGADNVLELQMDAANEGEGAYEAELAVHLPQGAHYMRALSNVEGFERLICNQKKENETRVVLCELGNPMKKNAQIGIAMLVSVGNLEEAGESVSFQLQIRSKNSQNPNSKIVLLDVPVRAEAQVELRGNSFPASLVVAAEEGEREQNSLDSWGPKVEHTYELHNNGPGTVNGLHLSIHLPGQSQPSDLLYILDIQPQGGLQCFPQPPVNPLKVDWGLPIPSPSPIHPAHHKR
Integrin alpha-IIb/beta-3, sequence (P08514 891-1039 limits assumed): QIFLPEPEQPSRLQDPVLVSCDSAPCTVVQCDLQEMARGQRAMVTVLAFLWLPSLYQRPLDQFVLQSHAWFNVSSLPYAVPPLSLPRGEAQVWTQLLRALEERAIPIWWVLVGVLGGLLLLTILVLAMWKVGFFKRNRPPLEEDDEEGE

IC50 | Compound
640 nM | N=C(N)c1ccc(OCCCCC(=O)N[C@@H](CC(=O)O)C(=O)N[C@@H](Cc2ccc(O)cc2)C(=O)O)cc1
270 nM | CN(C(=O)[C@H](CC(=O)O)NC(=O)CCCCOc1ccc(C(=N)N)cc1)[C@@H](Cc1ccc(O)cc1)C(=O)O
230 nM | CC(C)[C@H](NC(=O)[C@H](CC(=O)O)NC(=O)CCCCOc1ccc(C(=N)N)cc1)C(=O)O
88 nM | CC(C)[C@H](NC(=O)[C@H](CC(=O)O)NC(=O)CCCOc1ccc(C(=N)N)cc1)C(=O)O
